Test results published in US20170096422A1, “HETEROCYCLIC COMPOUND” (Takeda Pharmaceutical Company Limited, priority 2014, published 2017).

Molecular target: PKC θ (Homo sapiens, UniProt Q04759)
Assay: PKC θ enzyme inhibition test (TR-FRET)
Type: biochemical
Conditions: 1 μM test compound, well without enzyme = 100% inhibition; for inhibition at 1 µM: read-out: PKC θ inhibitory activity (%, 1 μM)
Procedure: PKC θ enzyme inhibitory activities of test compounds were measured by TR-FRET method. First, a test compound diluted with assay buffer (20 mM Tris-HCl (pH 7.5), 5 mM MgAcetate, 0.1 mM CaCl2, 1 mM DTT, 0.01% Tween20, 0.05% BSA, 10% PKC Activator (Millipore)) was added to 384-well plate at 2 μL each. Then, a solution diluted with assay buffer to […] of PKC θ and 1.2 μM of a fluorescence-labeled peptide substrate (Fluorescein-PKC Substrate, Life Technologies) was added by 2 μL. Then, enzyme reaction was started by adding 2 μL each of ATP solution prepared with assay buffer to 60 μM. After the reaction at room temperature for 1 hr, TR-FRET Dilution Buffer (Life Technologies) prepared to 20 mM EDTA, 0.6 nM terbium-labeled anti-phosphoserine antibody (Life Technologies) was added by 6 μL. After standing at room temperature for 1 hr, fluorescence intensity (excitation wavelength 340 nm, fluorescence wavelength 520 nm, delay time 100 microseconds) was measured by a plate reader, Envision (PerkinElmer). The inhibitory activity of each compound was calculated as relative activity value where fluorescence intensity of a well without enzyme is considered as 100% inhibition.

PKC θ, sequence (Q04759 whole entry): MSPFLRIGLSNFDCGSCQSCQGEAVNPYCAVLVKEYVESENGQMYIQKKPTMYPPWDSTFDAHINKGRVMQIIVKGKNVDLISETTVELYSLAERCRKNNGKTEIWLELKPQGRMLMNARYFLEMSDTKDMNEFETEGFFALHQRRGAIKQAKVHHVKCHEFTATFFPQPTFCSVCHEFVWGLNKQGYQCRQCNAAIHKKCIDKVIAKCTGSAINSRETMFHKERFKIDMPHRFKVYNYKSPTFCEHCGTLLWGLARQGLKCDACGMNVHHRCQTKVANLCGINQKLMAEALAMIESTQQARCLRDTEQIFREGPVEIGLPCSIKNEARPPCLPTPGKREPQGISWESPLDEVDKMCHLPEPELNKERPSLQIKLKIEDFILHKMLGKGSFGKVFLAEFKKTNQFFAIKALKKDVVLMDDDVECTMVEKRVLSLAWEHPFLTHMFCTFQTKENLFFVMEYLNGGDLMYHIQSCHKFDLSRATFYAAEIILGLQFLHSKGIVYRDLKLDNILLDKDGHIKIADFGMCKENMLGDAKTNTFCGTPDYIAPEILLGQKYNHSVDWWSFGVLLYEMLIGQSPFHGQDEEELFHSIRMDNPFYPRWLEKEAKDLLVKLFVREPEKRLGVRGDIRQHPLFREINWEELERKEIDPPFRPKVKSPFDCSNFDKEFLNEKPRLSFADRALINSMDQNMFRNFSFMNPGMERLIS

| SMILES | inhibition at 1 µM [%] | PKC θ inhibitory activity (%, 1 μM) [%] |
| --- | --- | --- |
| CCOc1ccnc2[nH]c(=O)n(-c3ccc4ncn(C)c4c3)c12 [Example 7, 7-ethoxy-1-(1-methyl-1H-benzimidazol-6-yl)-1,3-dihydro-2H-imidazo[4,5-b]pyridin-2-one] | 100 | – |
| CCOc1ccnc2[nH]c(=O)n(-c3ccc4ncc(CC)n4c3)c12 [Example 11, 7-ethoxy-1-(3-ethylimidazo[1,2-a]pyridin-6-yl)-1,3-dihydro-2H-imidazo[4,5-b]pyridin-2-one] | 96 | – |
| CCOc1ccnc2[nH]c(=O)n(-c3ccc4ncc(CC)n4n3)c12 [Example 12, 7-ethoxy-1-(3-ethylimidazo[1,2b]pyridazin-6-yl)-1,3-dihydro-2H-imidazo[4,5-b]pyridin-2-one] | – | 91 |
| CCOc1ccnc2[nH]c(=O)n(-c3ccc4ncn(C)c4n3)c12 [Example 13, 7-ethoxy-3′-methyl-3′H-1,5′-biimidazo[4,5-b]pyridin-2(3H)-one] | 90 | – |
| CCOc1ccnc2[nH]c(=O)n(-c3ccc4occ(C)c4c3)c12 [Example 15, 7-ethoxy-1-(3-methyl-1-benzo-furan-5-yl)-1,3-dihydro-2H-imidazo[4,5-b]pyridin-2-one] | 99 | – |
| CCOc1ccnc2[nH]c(=O)n(-c3ccn4ncc(CC)c4c3)c12 [Example 17, 7-ethoxy-1-(3-ethylpyrazolo[1,5-a]pyridin-5-yl)-1,3-dihydro-2H-imidazo[4,5-b]pyridin-2-one] | 100 | – |
| CCOc1ccnc2[nH]c(=O)n(-c3ccc4[nH]nc(C)c4c3)c12 [Example 18, 7-ethoxy-1-(3-methyl-1H-indazol-5-yl)-1,3-dihydro-2H-imidazo[4,5-b]pyridin-2-one] | 97 | – |
| CCOc1ccnc2[nH]c(=O)n(-c3ccc4nccc(C(N)=O)c4c3)c12 [Example 27, 6-(7-ethoxy-2-oxo-2,3-dihydro-1H-imidazo[4,5-b]pyridin-1-yl)quinoline-4-carboxamide] | 90 | – |
| CCOc1ccnc2[nH]c(=O)n(-c3ccc4ncnc(OC)c4c3)c12 [Example 39, 7-ethoxy-1-(4-methoxyquinazolin-6-yl)-1,3-dihydro-2H-imidazo[4,5-b]pyridin-2-one] | 102 | – |
| CCOc1ccnc2[nH]c(=O)n(-c3ccc4nccc(OC)c4c3)c12 [Example 41, 7-ethoxy-1-(4-methoxyquinolin-6-yl)-1,3-dihydro-2H-imidazo[4,5-b]pyridin-2-one] | 97 | – |

Other lines, results leading:

| inhibition at 1 µM [%] | PKC θ inhibitory activity (%, 1 μM) [%] | SMILES |
| --- | --- | --- |
| 124 | – | CCOc1ccnc2[nH]c(=O)n(-c3ccc4nccc(OC)c4n3)c12 [Example 55, 7-ethoxy-1-(8-methoxy-1,5-naphthyridin-2-yl)-1,3-dihydro-2H-imidazo[4,5-b]pyridin-2-one] |
| 101 | – | CCOc1ccnc2[nH]c(=O)n(-c3ccc4nncc(OC)c4c3)c12 [Example 60, 7-ethoxy-1-(4-methoxycinnolin-6-yl)-1,3-dihydro-2H-imidazo[4,5-b]pyridin-2-one] |
| 101 | – | CCOc1ccnc2[nH]c(=O)n(-c3ccc4ncc5c(c4c3)OCCO5)c12 [Example 75, 1-(2,3-dihydro[1,4]-dioxino[2,3-c]quinolin-9-yl)-7-ethoxy-1,3-dihydro-2H-imidazo[4,5-b]pyridin-2-one] |
| 102 | – | CCOc1ccnc2[nH]c(=O)n(-c3ccc4nccc(N5CCNCC5)c4c3)c12 [Example 92, 7-ethoxy-1-(4-(piperazin-1-yl)quinolin-6-yl)-1,3-dihydro-2H-imidazo[4,5-b]pyridin-2-one] |
| 94 | – | CCOc1cnc2ccc(-n3c(=O)[nH]c4nccc(OCC)c43)cc2n1 [Example 93, 7-ethoxy-1-(3-ethoxyquinoxalin-6-yl)-1,3-dihydro-2H-imidazo[4,5-b]pyridin-2-one] |
| 101 | – | CCOc1ccnc2[nH]c(=O)n(-c3cc4c5c(cnc4cc3F)OCCO5)c12 [Example 94, 7-ethoxy-1-(8-fluoro-2,3-dihydro[1,4]dioxino[2,3-c]quinolin-9-yl)-1,3-dihydro-2H-imidazo[4,5-b]pyridin-2-one] |
| 100 | – | CCOc1ccnc2[nH]c(=O)n(-c3ccc4ncc(-c5cnn(C)c5)c(OC)c4c3)c12 [Example 177, 7-ethoxy-1-(4-methoxy-3-(1-methyl-1H-pyrazol-4-yl)quinolin-6-yl)-1,3-dihydro-2H-imidazo[4,5-b]pyridin-2-one] |
| 101 | – | CCOc1ccnc2[nH]c(=O)n(-c3ccc4ncc(-c5cn[nH]c5)c(OC)c4c3)c12 [Example 185, 7-ethoxy-1-(4-methoxy-3-(1H-pyrazol-4-yl)quinolin-6-yl)-1,3-dihydro-2H-imidazo[4,5-b]pyridin-2-one] |
| 101 | – | COc1cnnc2ccc(-n3c(=O)[nH]c4nccc(OC5CCC5)c43)cc12 [Example 204, 7-(cyclobutyloxy)-1-(4-methoxycinnolin-6-yl)-1,3-dihydro-2H-imidazo[4,5-b]pyridin-2-one] |
| 102 | – | CCOc1ccnc2[nH]c(=O)n(-c3ccc4ncc(F)c(OC)c4c3)c12 [Example 230, 7-ethoxy-1-(3-fluoro-4-methoxyquinolin-6-yl)-1,3-dihydro-2H-imidazo[4,5-b]pyridin-2-one] |
